{"source": "patent US5519028A", "about": "“Antiviral preparations” (priority 1992, dated 1996)", "origin": "cited, not measured here", "system": "viruses of vaccine", "details": "intracutaneously 200-600 μg or 2.5-500 mg/day; cited from earlier work", "data": [{"compound": "CCc1ccc2c3[nH]c4ccccc4c3cc[n+]2c1", "note": "[flavopereirine]", "values": [{"measurement": "appearance and development of vital papules", "result": "prevents the appearance and development of vital papules"}]}]}
